Reference: patent US20240226045A9, “RUMEN-PROTECTED COMPOSITIONS AND METHODS OF MAKING THE SAME” (Balchem Corporation, priority 2022, published 2024)

Tests used:
[1] = Particle size distribution of histidine hydrochloride monohydrate crystals by sieving; format: physicochemical
Description: Histidine hydrochloride monohydrate crystals were sieved on Ro Tap equipment using a stack of US Mesh sieves to obtain a fraction ranging from 850 microns (20 US Mesh) to 250 microns (60 US Mesh) particle size. The fraction was chosen to remove very fine particles, which present a challenge to optimal microencapsulation.

[2] = Methionine pellet pH test; format: physicochemical; conditions: 2 hours at 39° C.
Method: The pellets were then incubated in a pH 2.0 buffer and a pH 7.0 buffer for 2 hours at 39° C. For comparison, pellets consisting of methionine were also incubated in the buffer solutions. The results are shown in FIG. 10 and in Table 26 below.

Difference ([1]; Pan, opening size <106 micron) | Final (wt % of total output) ([1]; Pan, opening size <106 micron) | Final (wt % of total output) ([1]; US mesh sieve #20, opening size 850 micron) | Final (wt % of total output) ([1]; US mesh sieve #40, opening size 425 micron) | Final (wt % of total output) ([1]; US mesh sieve #60, opening size 250 micron) | Final (wt % of total output) ([1]; US mesh sieve #80, opening size 180 micron) | Final (wt % of total output) ([1]; US mesh sieve #100, opening size 150 micron) | Final (wt % of total output) ([1]; US mesh sieve #140, opening size 106 micron) | Difference ([1]; retained on US mesh sieve #20, opening size 850 micron) | Difference ([1]; retained on US mesh sieve #40, opening size 425 micron) | Difference ([1]; retained on US mesh sieve #60, opening size 250 micron) | Difference ([1]; retained on US mesh sieve #80, opening size 180 micron) | Difference ([1]; retained on US mesh sieve #100, opening size 150 micron) | Difference ([1]; retained on US mesh sieve #140, opening size 106 micron) | wt % Release ([2]; 0.01M Acid Buffer, pH 2.00) | wt % Release ([2]; 0.05M Phosphate Buffer, pH 7.00) | Structure (SMILES)
7.41 g | 7.4 wt % of total output | 2.6 wt % of total output | 34.8 wt % of total output | 33.9 wt % of total output | 11.9 wt % of total output | 5.3 wt % of total output | 4.1 wt % of total output | 2.60 g | 34.87 g | 33.99 g | 11.88 g | 5.35 g | 4.09 g |  |  | Cl.N[C@@H](Cc1cnc[nH]1)C(=O)O.O
 |  |  |  |  |  |  |  |  |  |  |  |  |  | 99 wt % | 99 wt % | CSCC[C@H](N)C(=O)O [Met Reference Standard (99.9% purity)]
